# Results: patent publication US12077503B2, “Substituted cyclic amides and their use as herbicides” (FMC CORPORATION, priority 2015, dated 2024)
# Legend:
# Assay type in all cases: in vivo
# rice (Oryra sativa) = experiment: Test B flooded paddy test; conditions: Oryza sativa, 250 g ai/ha, Flood; 0 to 100 scale where 0 is no effect and 100 is complete control; read-out: Rice plant response rating
# Outline: (§1)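 Response scored visually against untreated controls, 0 = no effect and 100 = complete control, 13–15 d after treatment in the greenhouse. Compounds added to paddy water held 3 cm above soil surface. Treatment given at 2-leaf stage.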
# [1] = system: barnyardgrass (Echinochloa crus-galli); experiment: Test B flooded paddy test; conditions: Echinochloa crus-galli, 250 g ai/ha, Flood; 0 to 100 scale where 0 is no effect and 100 is complete control; read-out: Barnyardgrass plant response rating
# Outline: as §1
# [2] = system: ducksalad (Heteranthera limosa); experiment: Test B flooded paddy test; conditions: Heteranthera limosa, 250 g ai/ha, Flood; 0 to 100 scale where 0 is no effect and 100 is complete control; read-out: Ducksalad plant response rating
# Outline: as §1
# [3] = system: sedge, umbrella (small-flower umbrella sedge, Cyperus difformis); experiment: Test B flooded paddy test; conditions: Cyperus difformis, 250 g ai/ha, Flood; 0 to 100 scale where 0 is no effect and 100 is complete control; read-out: Sedge, Umbrella plant response rating
# Outline: as §1
# Kochia (Kochia scoparia) [4] = experiment: Test A preemergence; conditions: Bassia scoparia, pre-emergence, 240 h, 0 to 100 scale where 0 is no effect and 100 is complete control, read-out: Kochia plant response rating
# Outline: (§2)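 Ratings of 0 (no effect) to 100 (complete control) come from visual comparison with untreated controls roughly 10 d after treatment. Test chemicals, formulated in a non-phytotoxic solvent mixture with surfactant, were applied either as a preemergence directed soil spray on seeded soil or postemergence to one- to two-leaf plants 2 to 10 cm tall.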
# [5] = system: barnyardgrass (Echinochloa crus-galli); experiment: Test A preemergence; conditions: Echinochloa crus-galli, pre-emergence, 240 h, 0 to 100 scale where 0 is no effect and 100 is complete control, read-out: Barnyardgrass plant response rating
# Outline: as §2
# [6] = system: ryegrass, Italian (Italian ryegrass, Lolium multiflorum); experiment: Test A preemergence; conditions: Lolium multiflorum, pre-emergence, 240 h, 0 to 100 scale where 0 is no effect and 100 is complete control, read-out: Ryegrass, Italian plant response rating
# Outline: as §2
# [7] = system: ragweed (common ragweed, Ambrosia elatior); experiment: Test A preemergence; conditions: Ambrosia artemisiifolia, pre-emergence, 240 h, 0 to 100 scale where 0 is no effect and 100 is complete control, read-out: Ragweed plant response rating
# Outline: as §2
# [8] = system: pigweed (Amaranthus retroflexus); experiment: Test A preemergence; conditions: Amaranthus retroflexus, pre-emergence, 240 h, 0 to 100 scale where 0 is no effect and 100 is complete control, read-out: Pigweed plant response rating
# [9] = system: giant foxtail (Setaria faberii); experiment: Test A preemergence; conditions: Setaria faberi, pre-emergence, 240 h, 0 to 100 scale where 0 is no effect and 100 is complete control, read-out: Foxtail, Giant plant response rating
# Outline: as §2
# Kochia (Kochia scoparia) [10] = experiment: Test A postemergence; conditions: Bassia scoparia, post-emergence, 240 h
# Outline: as §2
# corn (Zea mays) = experiment: Test A postemergence; conditions: Zea mays, post-emergence, 240 h
# Outline: as §2
# [11] = system: blackgrass (Alopecurus myosuroides); experiment: Test A postemergence; conditions: Alopecurus myosuroides, post-emergence, 240 h
# Outline: as §2
# [12] = system: barnyardgrass (Echinochloa crus-galli); experiment: Test A postemergence; conditions: Echinochloa crus-galli, post-emergence, 240 h
# Outline: as §2
# [13] = system: wheat (Triticum aestivum); experiment: Test A postemergence; conditions: Triticum aestivum, post-emergence, 240 h
# Outline: as §2
# [14] = system: ryegrass, Italian (Italian ryegrass, Lolium multiflorum); experiment: Test A postemergence; conditions: Lolium multiflorum, post-emergence, 240 h
# Outline: as §2
# [15] = system: ragweed (common ragweed, Ambrosia elatior); experiment: Test A postemergence; conditions: Ambrosia artemisiifolia, post-emergence, 240 h
# Outline: as §2
# [16] = system: Galium (catchweed bedstraw, Galium aparine); experiment: Test A postemergence; conditions: Galium, post-emergence, 240 h
# Outline: as §2
# [17] = system: pigweed (Amaranthus retroflexus); experiment: Test A postemergence; conditions: Amaranthus retroflexus, post-emergence, 240 h
# Outline: as §2
# [18] = system: giant foxtail (Setaria faberii); experiment: Test A postemergence; conditions: Setaria faberi, post-emergence, 240 h
# Outline: as §2
# [19] = 125 g ai/ha, preemergence, approx. 10 d
structure (smiles),measurement,setting,value
CN1C[C@H](c2csc3c2CCCC3)[C@@H](C(=O)Nc2ccccc2S(C)(=O)=O)C1=O [Compound 1080],pest or weed control at 250 g/ha,rice (Oryra sativa),15%
same,pest or weed control at 250 g/ha,[1],50%
same,pest or weed control at 250 g/ha,[2],40%
same,pest or weed control at 250 g/ha,[3],0%
same,pest or weed control at 31 g/ha,"Kochia (Kochia scoparia) [4]; 31 g ai/ha, Preemergence",0%
same,pest or weed control at 125 g/ha,Kochia (Kochia scoparia) [4]; [19],10%
same,pest or weed control at 31 g/ha,"[5]; 31 g ai/ha, Preemergence",0%
same,pest or weed control at 125 g/ha,[5]; [19],0%
same,pest or weed control at 31 g/ha,"[6]; 31 g ai/ha, Preemergence",0%
same,pest or weed control at 125 g/ha,[6]; [19],0%
same,pest or weed control at 31 g/ha,"[7]; 31 g ai/ha, Preemergence",0%
same,pest or weed control at 125 g/ha,[7]; [19],0%
same,pest or weed control at 31 g/ha,"[8]; 31 g ai/ha, Preemergence",0%
same,pest or weed control at 125 g/ha,[8]; [19],0%
same,pest or weed control at 31 g/ha,"[9]; 31 g ai/ha, Preemergence",0%
same,pest or weed control at 125 g/ha,[9]; [19],0%
same,pest or weed control at 125 g/ha,"Kochia (Kochia scoparia) [10]; 125 g ai/ha, postemergence, visual injury on 0 to 100 scale (0 no effect, 100 complete control), approx. 10 d, read-out: Kochia plant response rating",0%
same,pest or weed control at 31 g/ha,"Kochia (Kochia scoparia) [10]; Postemergence, 31 g ai/ha, visual injury after approx. 10 d, 0 to 100 scale, 0 no effect, 100 complete control, read-out: Plant response rating, Kochia",0%
same,plant injury at 125 g/ha,"corn (Zea mays); 125 g ai/ha, postemergence, visual injury on 0 to 100 scale (0 no effect, 100 complete control), approx. 10 d, read-out: Corn plant response rating",0%
same,"Corn plant response rating (crop injury, 0 = no effect, 100 = complete kill) at 31 g/ha","corn (Zea mays); Postemergence, 31 g ai/ha, visual injury after approx. 10 d, 0 to 100 scale, 0 no effect, 100 complete control",0%
same,pest or weed control at 125 g/ha,"[11]; 125 g ai/ha, postemergence, visual injury on 0 to 100 scale (0 no effect, 100 complete control), approx. 10 d, read-out: Blackgrass plant response rating",0%
same,pest or weed control at 31 g/ha,"[11]; Postemergence, 31 g ai/ha, visual injury after approx. 10 d, 0 to 100 scale, 0 no effect, 100 complete control, read-out: Plant response rating, Blackgrass",0%
same,pest or weed control at 125 g/ha,"[12]; 125 g ai/ha, postemergence, visual injury on 0 to 100 scale (0 no effect, 100 complete control), approx. 10 d, read-out: Barnyardgrass plant response rating",50%
same,pest or weed control at 31 g/ha,"[12]; Postemergence, 31 g ai/ha, visual injury after approx. 10 d, 0 to 100 scale, 0 no effect, 100 complete control, read-out: Plant response rating, Barnyardgrass",0%
same,plant injury at 125 g/ha,"[13]; 125 g ai/ha, postemergence, visual injury on 0 to 100 scale (0 no effect, 100 complete control), approx. 10 d, read-out: Wheat plant response rating",0%
same,plant injury at 31 g/ha,"[13]; Postemergence, 31 g ai/ha, visual injury after approx. 10 d, 0 to 100 scale, 0 no effect, 100 complete control, read-out: Plant response rating, Wheat",0%
same,pest or weed control at 125 g/ha,"[14]; 125 g ai/ha, postemergence, visual injury on 0 to 100 scale (0 no effect, 100 complete control), approx. 10 d, read-out: Ryegrass, Italian plant response rating",0%
same,pest or weed control at 31 g/ha,"[14]; Postemergence, 31 g ai/ha, visual injury after approx. 10 d, 0 to 100 scale, 0 no effect, 100 complete control, read-out: Plant response rating, Ryegrass, Italian",0%
same,pest or weed control at 125 g/ha,"[15]; 125 g ai/ha, postemergence, visual injury on 0 to 100 scale (0 no effect, 100 complete control), approx. 10 d, read-out: Ragweed plant response rating",0%
same,pest or weed control at 31 g/ha,"[15]; Postemergence, 31 g ai/ha, visual injury after approx. 10 d, 0 to 100 scale, 0 no effect, 100 complete control, read-out: Plant response rating, Ragweed",0%
same,pest or weed control at 125 g/ha,"[16]; 125 g ai/ha, postemergence, visual injury on 0 to 100 scale (0 no effect, 100 complete control), approx. 10 d, read-out: Galium plant response rating",0%
same,pest or weed control at 31 g/ha,"[16]; Postemergence, 31 g ai/ha, visual injury after approx. 10 d, 0 to 100 scale, 0 no effect, 100 complete control, read-out: Plant response rating, Galium",0%
same,pest or weed control at 125 g/ha,"[17]; 125 g ai/ha, postemergence, visual injury on 0 to 100 scale (0 no effect, 100 complete control), approx. 10 d, read-out: Pigweed plant response rating",0%
same,pest or weed control at 31 g/ha,"[17]; Postemergence, 31 g ai/ha, visual injury after approx. 10 d, 0 to 100 scale, 0 no effect, 100 complete control, read-out: Plant response rating, Pigweed",0%
same,pest or weed control at 125 g/ha,"[18]; 125 g ai/ha, postemergence, visual injury on 0 to 100 scale (0 no effect, 100 complete control), approx. 10 d, read-out: Foxtail, Giant plant response rating",0%
same,pest or weed control at 31 g/ha,"[18]; Postemergence, 31 g ai/ha, visual injury after approx. 10 d, 0 to 100 scale, 0 no effect, 100 complete control, read-out: Plant response rating, Foxtail, Giant",0%
